Experimental data: US8772480B2, “Inhibitors of PI3 kinase and/or mTOR” (priority 2009, dated 2014)

What was measured:
[1] = tested on: phosphorylation of Akt at Serine 473 in U87 MG cells; test: cells; settings: Homo sapiens, U-87 MG, 2 h, read-out: U87Cell IC50, pAkt (Ser 473), U87 MG cells, two hours with compound
PI3Kα = PI3Kα (Homo sapiens (Human), UniProt P42336); settings: read-out: PI3Kα AlphaScreen ® Ki
PI3Kα, sequence (P42336 whole entry): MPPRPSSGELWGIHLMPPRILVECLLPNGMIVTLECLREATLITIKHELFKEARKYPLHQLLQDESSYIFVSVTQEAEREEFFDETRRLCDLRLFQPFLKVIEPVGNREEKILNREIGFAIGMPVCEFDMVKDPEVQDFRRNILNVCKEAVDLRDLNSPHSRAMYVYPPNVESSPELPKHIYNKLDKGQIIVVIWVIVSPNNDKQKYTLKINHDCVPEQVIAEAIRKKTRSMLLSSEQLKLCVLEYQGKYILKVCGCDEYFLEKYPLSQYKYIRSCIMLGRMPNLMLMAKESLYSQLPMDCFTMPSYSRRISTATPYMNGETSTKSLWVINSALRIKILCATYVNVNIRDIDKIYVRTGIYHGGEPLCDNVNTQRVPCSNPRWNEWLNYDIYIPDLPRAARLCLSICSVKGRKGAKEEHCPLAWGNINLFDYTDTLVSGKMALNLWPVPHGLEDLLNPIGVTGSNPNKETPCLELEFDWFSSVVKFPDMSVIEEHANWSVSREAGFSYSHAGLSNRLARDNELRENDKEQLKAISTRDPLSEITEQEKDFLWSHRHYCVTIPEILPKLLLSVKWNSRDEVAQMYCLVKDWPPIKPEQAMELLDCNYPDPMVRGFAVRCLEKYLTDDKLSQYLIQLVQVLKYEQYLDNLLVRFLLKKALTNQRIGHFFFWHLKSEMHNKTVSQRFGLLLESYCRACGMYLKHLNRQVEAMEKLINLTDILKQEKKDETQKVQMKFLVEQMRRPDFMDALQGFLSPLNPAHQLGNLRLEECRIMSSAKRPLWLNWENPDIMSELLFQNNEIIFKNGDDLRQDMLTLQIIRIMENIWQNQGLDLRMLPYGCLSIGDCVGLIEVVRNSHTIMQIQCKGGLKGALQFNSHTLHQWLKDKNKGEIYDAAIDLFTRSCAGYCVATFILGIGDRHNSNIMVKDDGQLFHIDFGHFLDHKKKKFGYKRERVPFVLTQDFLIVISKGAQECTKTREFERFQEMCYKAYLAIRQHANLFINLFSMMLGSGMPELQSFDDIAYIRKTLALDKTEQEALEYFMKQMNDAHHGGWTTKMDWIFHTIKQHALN
PI3Kα, sequence (P27986 whole entry partner): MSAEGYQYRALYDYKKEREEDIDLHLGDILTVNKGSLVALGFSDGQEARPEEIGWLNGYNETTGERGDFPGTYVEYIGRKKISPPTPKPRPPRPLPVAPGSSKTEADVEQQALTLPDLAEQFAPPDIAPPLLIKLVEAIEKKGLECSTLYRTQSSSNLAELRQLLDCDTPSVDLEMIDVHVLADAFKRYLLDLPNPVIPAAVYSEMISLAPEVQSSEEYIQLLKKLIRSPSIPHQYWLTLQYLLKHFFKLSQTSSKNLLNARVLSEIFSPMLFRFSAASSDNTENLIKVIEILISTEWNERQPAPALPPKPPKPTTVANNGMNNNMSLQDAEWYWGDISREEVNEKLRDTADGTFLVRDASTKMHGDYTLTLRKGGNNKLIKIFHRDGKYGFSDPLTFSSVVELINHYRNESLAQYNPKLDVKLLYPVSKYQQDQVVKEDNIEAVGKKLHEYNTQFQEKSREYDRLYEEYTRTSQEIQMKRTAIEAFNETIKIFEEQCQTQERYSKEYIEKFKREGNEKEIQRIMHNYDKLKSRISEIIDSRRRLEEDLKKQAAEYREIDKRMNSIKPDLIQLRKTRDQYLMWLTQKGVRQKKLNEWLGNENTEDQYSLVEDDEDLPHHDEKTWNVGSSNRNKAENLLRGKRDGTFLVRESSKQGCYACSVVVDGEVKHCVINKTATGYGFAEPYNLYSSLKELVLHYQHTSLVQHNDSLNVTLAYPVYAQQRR

IC50 [1] [nM] | Ki (PI3Kα) [nM] | Structure (SMILES)
185 | 5 | COc1ccc(Nc2ncc(C(O)c3ccc(S(C)(=O)=O)cc3)cc2-c2nc(C)nc3[nH]cnc23)cn1 (stereo not shown) [Example 139, (6-(6-methoxypyridin-3-ylamino)-5-(2-methyl-9H-purin-6-yl)pyridin-3-yl)(4-(methylsulfonyl)phenyl)methanol]
34 | 6 | COc1ccc(Nc2ncc(C(C)N3CCN(S(C)(=O)=O)CC3)cc2-c2nc(C)nc3[nH]cnc23)cn1 (stereo not shown) [Example 140, N-(6-methoxypyridin-3-yl)-3-(2-methyl-9H-purin-6-yl)-5-(1-(4-(methylsulfonyl)piperazin-1-yl)ethyl)pyridin-2-amine]
6 | 2 | COc1ncc(Nc2ncc(Cc3ccc(S(C)(=O)=O)cc3)cc2-c2nc(C)nc(N)n2)cc1F [Example 142, 4-(2-(5-fluoro-6-methoxypyridin-3-ylamino)-5-(4-(methylsulfonyl)benzyl)pyridin-3-yl)-6-methyl-1,3,5-triazin-2-amine]
26 | 7 | COc1ccc(Nc2ncc(C(C)N3CCN(S(C)(=O)=O)CC3)cc2-c2nc(C)nc(N)n2)cn1 (stereo not shown) [Example 144, 4-(2-(6-Methoxypyridin-3-Ylamino)-5-(1-(4-(Methylsulfonyl)Piperazin-1-yl)Ethyl)Pyridin-3-yl)-6-Methyl-1,3,5-Triazin-2-Amine]
8 | 8 | COc1ccc(Nc2ncc([C@H](C)N3CCN(S(C)(=O)=O)CC3)cc2-c2nc(C)nc(N)n2)cn1 [Example 145, (S)-4-(2-(6-Methoxypyridin-3-Ylamino)-5-(1-(4-(Methylsulfonyl)Piperazin-1-yl)Ethyl)Pyridin-3-yl)-6-Methyl-1,3,5-Triazin-2-Amine]
7 | 6 | COc1ccc(Nc2ncc([C@@H](C)N3CCN(S(C)(=O)=O)CC3)cc2-c2nc(C)nc(N)n2)cn1 [Example 146, (R)-4-(2-(6-Methoxypyridin-3-Ylamino)-5-(1-(4-(Methylsulfonyl)Piperazin-1-yl)Ethyl)Pyridin-3-yl)-6-Methyl-1,3,5-Triazin-2-Amine]
53 | 5 | COc1ccc(Nc2ncc(C(C)c3ccc(S(C)(=O)=O)cc3)cc2-c2nc(C)nc(N)n2)cn1 (stereo not shown) [Example 149, 4-(2-(6-Methoxypyridin-3-Ylamino)-5-(1-(4-(Methylsulfonyl)Phenyl)Ethyl)Pyridin-3-yl)-6-Methyl-1,3,5-Triazin-2-Amine]
11 | 1 | COc1ncc(Nc2ncc(C(C)c3ccc(S(C)(=O)=O)cc3)cc2-c2nc(C)nc(N)n2)cc1F (stereo not shown) [Example 150, 4-(2-(5-Fluoro-6-Methoxypyridin-3-Ylamino)-5-(1-(4-(Methylsulfonyl)Phenyl)Ethyl)Pyridin-3-yl)-6-Methyl-1,3,5-Triazin-2-Amine]
143 | 64 | COc1ccc(Nc2ncc(C(=O)N3CCOCC3)cc2-c2nc(C)nc(N)n2)cn1 [Example 151, 4-(2-((6-Methoxy-3-Pyridinyl)Amino)-5-(4-Morpholinylcarbonyl)-3-Pyridinyl)-6-Methyl-1,3,5-Triazin-2-Amine]
110 | 21 | COCCNC(=O)c1cnc(Nc2ccc(OC)nc2)c(-c2nc(C)nc(N)n2)c1 [Example 153, 5-(4-Amino-6-Methyl-1,3,5-Triazin-2-yl)-N-(2-Methoxyethyl)-6-((6-Methoxy-3-Pyridinyl)Amino)-3-Pyridinecarboxamide]
79 | 33 | COc1ccc(Nc2ncc(CN3CCOCC3=O)cc2-c2nc(C)nc(N)n2)cn1 [Example 154, 4-((5-(4-Amino-6-Methyl-1,3,5-Triazin-2-yl)-6-((6-Methoxy-3-Pyridinyl)Amino)-3-Pyridinyl)Methyl)-3-Morpholinone]
16 | 7 | COc1ccc(Nc2ncc(CN3CCN(S(C)(=O)=O)C[C@H]3C)cc2-c2nc(C)nc(N)n2)cn1 [Example 158, (R)-4-(2-(6-Methoxypyridin-3-Ylamino)-5-((2-Methyl-4-(Methylsulfonyl)Piperazin-1-yl)Methyl)Pyridin-3-yl)-6-Methyl-1,3,5-Triazin-2-Amine]
11 | 11 | COc1ncc(Nc2ncc(CN3CCN(C(=O)N(C)C)CC3)cc2-c2nc(C)nc(N)n2)cc1F [Example 159, 4-((5-(4-Amino-6-Methyl-1,3,5-Triazin-2-yl)-6-(5-Fluoro-6-Methoxypyridin-3-Ylamino)Pyridin-3-yl)Methyl)-N,N-Dimethylpiperazine-1-Carboxamide]
3170 | 505 | Cc1nc(N)nc(-c2cc(CN3CCN(C(=O)N(C)C)CC3)cnc2Nc2cnc(O)c(F)c2)n1 [Example 160, 4-((5-(4-Amino-6-Methyl-1,3,5-Triazin-2-yl)-6-(5-Fluoro-6-Hydroxypyridin-3-Ylamino)Pyridin-3-yl)Methyl)-N,N-Dimethylpiperazine-1-Carboxamide]
73 | 36 | Cc1nc(N)nc(-c2cc(CN3CCN(S(C)(=O)=O)CC3)cnc2Nc2cnc(O)c(F)c2)n1 [Example 161, 5-(3-(4-Amino-6-Methyl-1,3,5-Triazin-2-yl)-5-((4-(Methylsulfonyl)Piperazin-1-yl)Methyl)Pyridin-2-Ylamino)-3-Fluoropyridin-2-ol]
30 | 7 | CNc1nc(C)nc(-c2cc(CN3CCN(S(C)(=O)=O)CC3)cnc2Nc2ccc(OC)nc2)n1 [Example 163, 4-(2-(6-Methoxypyridin-3-Ylamino)-5-((4-(Methylsulfonyl)Piperazin-1-yl)Methyl)Pyridin-3-yl)-N,6-Dimethyl-1,3,5-Triazin-2-Amine]

IC50 [1] [nM] | Ki (PI3Kα) [nM] | Structure (SMILES)
> 10000 | 963 | Cc1nc(N)nc(-c2cccnc2Nc2cccc(OC(F)F)c2)n1 [Example 164, 4-(2-(3-(Difluoromethoxy)Phenylamino)Pyridin-3-yl)-6-Methyl-1,3,5-Triazin-2-Amine]
902 | 177 | COc1ccc(Nc2ncccc2-c2nc(C)nc(N)n2)cc1F [Example 166, 4-(2-(3-Fluoro-4-Methoxyphenylamino)Pyridin-3-yl)-6-Methyl-1,3,5-Triazin-2-Amine]
> 10000 | 610 | Cc1nc(N)nc(-c2cccnc2Nc2ccc3c(c2)OC(F)(F)O3)n1 [Example 168, 4-(2-(2,2-Difluorobenzo[D][1,3]Dioxol-5-Ylamino)Pyridin-3-yl)-6-Methyl-1,3,5-Triazin-2-Amine]
105 | 17 | COc1ccc(Nc2ncc(-c3ccc(OC)nc3)cc2-c2nc(C)nc(N)n2)cn1 [Example 169, 5-(4-Amino-6-Methyl-1,3,5-Triazin-2-yl)-6′-Methoxy-N-(6-Methoxypyridin-3-yl)-3,3′-Bipyridin-6-Amine]
596 | 560 | COc1ccc(Nc2ncccc2-c2nc(C)nc(N)n2)cc1OC [Example 170, 4-(2-(3,4-Dimethoxyphenylamino)Pyridin-3-yl)-6-Methyl-1,3,5-Triazin-2-Amine]
> 10000 | 611 | Cc1ccc2cc(Nc3ncccc3-c3nc(C)nc(N)n3)ccc2n1 [Example 171, N-(3-(4-Amino-6-Methyl-1,3,5-Triazin-2-yl)Pyridin-2-yl)-2-Methylquinolin-6-Amine]
58 | 6 | COc1ccc(Nc2ncc(-c3ccccn3)cc2-c2nc(C)nc(N)n2)cn1 [Example 172, 5′-(4-Amino-6-Methyl-1,3,5-Triazin-2-yl)-N-(6-Methoxypyridin-3-yl)-2,3′-Bipyridin-6′-Amine]
353 | 60 | COc1ncc(Nc2ncccc2-c2nc(C)nc(N)n2)cc1Cl [Example 173, 4-(2-(5-Chloro-6-Methoxypyridin-3-Ylamino)Pyridin-3-yl)-6-Methyl-1,3,5-Triazin-2-Amine]
> 10000 | 455 | Cc1cncc(Nc2ncccc2-c2nc(C)nc(N)n2)c1 [Example 174, 4-Methyl-6-(2-(5-Methylpyridin-3-Ylamino)Pyridin-3-yl)-1,3,5-Triazin-2-Amine]
> 10000 | 63 | COc1ncc(Nc2nc(-c3ccncc3)ccc2-c2nc(C)nc(N)n2)cc1F [Example 175, 5-(4-Amino-6-Methyl-1,3,5-Triazin-2-yl)-N-(5-Fluoro-6-Methoxypyridin-3-yl)-2,4′-Bipyridin-6-Amine]
134 | 44 | COc1ncc(Nc2ncc(C(=O)N3CCC(O)CC3)cc2-c2nc(C)nc(N)n2)cc1F [Example 176, (5-(4-amino-6-methyl-1,3,5-triazin-2-yl)-6-(5-fluoro-6-methoxypyridin-3-ylamino)pyridin-3-yl)(4-hydroxypiperidin-1-yl)methanone]
50 | 6 | COc1ccc(Nc2ncc(CN3CCN(S(C)(=O)=O)CC3)cc2-c2cc(N)nc(C)n2)cn1 [Example 178, 6-(2-(6-Methoxypyridin-3-Ylamino)-5-((4-(Methylsulfonyl)Piperazin-1-yl)Methyl)Pyridin-3-yl)-2-Methylpyrimidin-4-Amine]
1570 | 124 | Cc1nc(N)cc(-c2nc3ccccc3nc2Nc2cccc3[nH]ncc23)n1 [Example 180, 3-(6-Amino-2-Methylpyrimidin-4-yl)-N-(1H-Indazol-4-yl)Quinoxalin-2-Amine]
562 | 754 | CC(=O)Nc1ccc(Nc2ncccc2-c2nc(C)nc3[nH]cnc23)cc1Cl [Example 181, N-(2-Chloro-4-(3-(2-Methyl-9H-Purin-6-yl)Pyridin-2-Ylamino)Phenyl)Acetamide]
446 | 26 | COc1cncc(Nc2ncccc2-c2nc(C)nc3[nH]cnc23)c1 [Example 183, N-(5-Methoxypyridin-3-yl)-3-(2-Methyl-9H-Purin-6-yl)Pyridin-2-Amine]
> 10000 | 851 | Cc1nc(N)nc(-c2cc(F)cnc2Nc2cncc(F)c2)n1 [Example 186, 4-(5-Fluoro-2-(5-Fluoropyridin-3-Ylamino)Pyridin-3-yl)-6-Methyl-1,3,5-Triazin-2-Amine]
